Experimental data from ChEMBL document CHEMBL2417420, “Autotaxin inhibition: development and application of computational tools to identify site-selective lead compounds” (Bioorg Med Chem, 2013).
Active and inactive are the calls of the source. No cut-off for these calls is given here.

Key:
[1] = molecular target: T1, Autotaxin (Homo sapiens, UniProt Q13822); assay: Inhibition of C-terminal FLAG-tagged human recombinant autotaxin using synthetic substrate FS-3 at 10 uM measured every 2 mins by FRET assay relative to control
[2] = molecular target: T1, Autotaxin; assay: Inhibition of C-terminal FLAG-tagged human recombinant autotaxin using synthetic substrate FS-3 measured every 2 mins by FRET assay
[3] = molecular target: T1, Autotaxin; assay: Activation of C-terminal FLAG-tagged human recombinant autotaxin using paranitrophenyl thymidine monophosphate as substrate at 10 uM measured every 2 mins by […] assay
[4] = molecular target: T1, Autotaxin; assay: Competitive inhibition of C-terminal FLAG-tagged human recombinant autotaxin using synthetic substrate FS-3 by Michaelis-Menten equation analysis
[5] = tested on: A2058; assay: Cytotoxicity against human A2058 cells assessed as reduction of cell number at 30 uM after 24 hrs by MTS assay; format: functional
[6] = molecular target: T1, Autotaxin; assay: Activation of C-terminal FLAG-tagged human recombinant autotaxin using paranitrophenyl thymidine monophosphate as substrate measured every 2 mins by […] assay
[7] = tested on: A2058; assay: Cytotoxicity against human A2058 cells assessed as reduction lysophosphatidyl choline and autotaxin-induced of cell proliferation at 30 uM after 24 hrs by MTS assay; format: functional; design: scale not given: the % may be the effect or the level left
[8] = tested on: A2058; assay: Reduction of lysophosphatidic acid-induced cell migration in human A2058 cells at 30 uM after 4 to 48 hrs by monolayer scratch assay; format: functional; design: scale not given: the % may be the effect or the level left
[9] = tested on: A2058; assay: Cytotoxicity against human A2058 cells assessed as reduction lysophosphatidic acid-induced of cell proliferation at 30 uM after 24 hrs by MTS assay; format: functional; design: scale not given: the % may be the effect or the level left
[10] = tested on: A2058; assay: Reduction of autotaxin and lysophosphatidyl choline-induced cell migration in human A2058 cells at 30 uM after 4 to 48 hrs by monolayer scratch assay; format: functional; design: scale not given: the % may be the effect or the level left
[11] = tested on: A2058; assay: Reduction of cell migration in human A2058 cells at 30 uM after 4 to 48 hrs by monolayer scratch assay; format: functional; design: scale not given: the % may be the effect or the level left
[12] = tested on: A2058; assay: Cytotoxicity against human A2058 cells assessed as reduction autotaxin-induced of cell proliferation at 30 uM after 24 hrs by MTS assay; format: functional; design: scale not given: the % may be the effect or the level left
[13] = tested on: A2058; assay: Reduction of autotaxin-induced cell migration in human A2058 cells at 30 uM after 4 to 48 hrs by monolayer scratch assay; format: functional; design: scale not given: the % may be the effect or the level left
[14] = tested on: A2058; assay: Reduction of lysophosphatidyl choline-induced cell migration in human A2058 cells at 30 uM after 4 to 48 hrs by monolayer scratch assay; format: functional; design: scale not given: the % may be the effect or the level left
[15] = tested on: A2058; assay: Cytotoxicity against human A2058 cells assessed as reduction lysophosphatidyl choline-induced of cell proliferation at 30 uM after 24 hrs by MTS assay; format: functional; design: scale not given: the % may be the effect or the level left
[16] = molecular target: T1, Autotaxin; assay: Inhibition of C-terminal FLAG-tagged human recombinant autotaxin using paranitrophenyl thymidine monophosphate as substrate at 10 uM measured every 2 mins by […] assay relative to control

COc1cc(CCNC(=O)c2ccc3c(c2)nc(-c2cccc4ccccc24)n3CCc2ccc(OC)c(OC)c2)cc(OC)c1
inhibition [1]: 63.8%
IC50 [2]: 1100 nM

COc1cc(/C=C2/SC(=S)N(Cc3ccccc3)C2=O)ccc1OC(=O)c1ccc(F)cc1
Activity [3]: Active

CC(=O)Nc1ccc(S(=O)(=O)N/N=C/c2ccc(OCc3ccccc3)cc2)cc1
Activity [3]: Active

COc1ccc(Cl)cc1NC(=O)CSC1=C(C#N)C(c2ccc(OC)c(OC)c2)CC(=O)N1 (stereo not drawn)
Activity [3]: Active

O=C(O)c1cc(-c2ccc(/C=C3\S/C(=N\c4ccccc4)N(Cc4ccccc4)C3=O)o2)ccc1Cl
Activity [3]: Active

O=C(Cn1c(=O)sc2cccc(Cl)c21)OCc1cccc(Oc2ccccc2)c1
Activity [3]: Active

O=C(O)c1ccc(-c2ccc(/C=C3/SC(=O)N(Cc4ccc(F)cc4)C3=O)o2)cc1
inhibition [1]: 68.8%
IC50 [2]: 4400 nM

CC(O)C(NC(=O)c1ccc(N2CCN(C(=O)Cc3cccc4ccccc34)CC2)nc1)C(N)=O (stereo not drawn)
Activity [3]: Active

CC1CCC(C(C)C)C(OCC(=O)N2CCC(CCCC3CCN(c4ccc(C(=O)N5CCCC5C(N)=O)cc4)CC3)CC2)C1 (stereo not drawn)
inhibition [1]: 90.5%
Ki [4]: 100 nM
IC50 [2]: 800 nM
Activity [5]: Active
EC50 [6]: 2790 nM

CCOc1cc(/C=C2/SC(=S)N(Cc3ccccc3)C2=O)ccc1OC(=O)c1ccc(F)cc1
Activity [3]: Active

CCOC(=O)C1=C(C)N=c2s/c(=C/c3cccc(OC)c3O)c(=O)n2[C@@H]1c1ccccc1
Activity [3]: Active

COc1cc(/C=C2/SC(=S)N(Cc3ccccc3)C2=O)ccc1OC(=O)c1ccco1
Activity [3]: Active

O=C(O)c1ccccc1-c1ccc(/C=C2/SC(=S)N(Cc3ccccc3)C2=O)o1
inhibition [1]: 93.7%
IC50 [2]: 2400 nM

CC(C)C1C(=O)Nc2cc(S(=O)(=O)NCc3ccccc3)ccc2N1C(=O)CN1CCCCC1 (stereo not drawn)
inhibition [1]: 62.3%
IC50 [2]: 6200 nM

CC(C)Cc1ccc(C(C)C(=O)N2CCC(CCCC3CCN(c4ccc(C(=O)NC(C(N)=O)C(C)O)cn4)CC3)CC2)cc1 (stereo not drawn)
inhibition [1]: 87.3%
Ki [4]: 800 nM
IC50 [2]: 800 nM
Activity [5]: Active
EC50 [6]: 4310 nM

CCCSC1=C(C#N)C(c2cc(Br)c(O)c(OC)c2)CC(=O)N1 (stereo not drawn)
Activity [3]: Active

CC1CN(c2ccc(C(=O)N3CCCC3C(N)=O)cn2)CCC1C(=O)COc1cccc2ccccc12 (stereo not drawn)
Activity [7]: 27%
inhibition [1]: 64.7%
Activity [8]: 30%
Ki [4]: 1600 nM
Activity [9]: 44%
Activity [10]: 25%
IC50 [2]: 1000 nM
Activity [11]: 39%
Activity [5]: 49%
Activity [12]: 36%
Activity [13]: 34%
Activity [14]: 24%
Activity [15]: 36%
inhibition [16]: 10.6%

CCOC(=O)C1=C(C)N=c2s/c(=C/c3ccc(O)c(OC)c3)c(=O)n2[C@H]1c1cccc2ccccc12
Activity [3]: Active

CCCc1ccc(S(=O)(=O)Oc2ccccc2-c2cc(CC)n(CCN3CCCCC3)n2)cc1
inhibition [1]: 61.5%
IC50 [2]: 4900 nM

CC(C)c1ccc(OCC(=O)N2CCN(c3ccc(C(=O)N4CCCC4C(N)=O)cn3)CC2C)cc1 (stereo not drawn)
inhibition [1]: 88.5%
Ki [4]: 1600 nM
Activity [10]: 16%
IC50 [2]: 1200 nM
Activity [11]: 43%
Activity [5]: inactive
Activity [13]: 19%
Activity [14]: 35%
inhibition [16]: 29.3%

COc1ccc(OCCNC(=S)Nc2ccc(-c3ccccc3)cc2)cc1
Activity [3]: Active

COC(=O)C1C(=O)NC(SCC(=O)Nc2ccc(C)cc2Br)=C(C#N)C1c1ccc(OC)cc1 (stereo not drawn)
Activity [3]: Active

CC(O)C(NC(=O)c1ccc(N2CCC(CCCC3CCN(C(=O)Cc4ccc(-c5ccccc5)cc4)CC3)CC2)nc1)C(N)=O (stereo not drawn)
inhibition [1]: 85.3%
Ki [4]: 200 nM
IC50 [2]: 900 nM
Activity [5]: Active
EC50 [6]: 4440 nM

Cc1cc(C)cc(CC(=O)N2CCC(CCCC3CCN(c4ccc(C(=O)NC(C(N)=O)C(C)O)cn4)CC3)CC2)c1 (stereo not drawn)
inhibition [1]: 83.2%
Ki [4]: 17900 nM
IC50 [2]: 900 nM
Activity [11]: inactive
Activity [5]: inactive

CC(O)C(NC(=O)c1ccc(N2CCC(CCCC3CCN(C(=O)CCC(=O)c4ccccc4)CC3)CC2)nc1)C(N)=O (stereo not drawn)
inhibition [1]: 87.4%
Activity [8]: 22%
Ki [4]: 500 nM
Activity [9]: 27%
Activity [10]: 38%
IC50 [2]: 900 nM
Activity [12]: 30%
Activity [13]: 33%
Activity [14]: 28%

COc1cc(C2CC(=O)NC(SCC(=O)Nc3ccc(Br)cc3)=C2C#N)ccc1O (stereo not drawn)
inhibition [1]: 68.6%
Activity [8]: 57%
Ki [4]: 9800 nM
Activity [9]: 28%
Activity [10]: 60%
IC50 [2]: 3800 nM
Activity [11]: 60%
Activity [13]: 61%
Activity [14]: 59%

COc1cc(/C=c2/sc3nc4ccccc4n3c2=O)cc(Br)c1OCc1ccccc1Cl
Activity [3]: Active

O=C(NCCOCCO)c1ccc2c(c1)nc(CN1CCC(N3CCCC3)CC1)n2CC1CC1
inhibition [1]: 10%

CC(CNC(=O)c1cc(-c2ccoc2)nc2ccccc12)C(=O)NCCNc1ccccc1 (stereo not drawn)
inhibition [1]: 10%

Cc1cccc(S(=O)(=O)N2CCn3nc(C4CCC(CNC(=O)CC(C)C)CC4)cc32)c1 (stereo not drawn)
inhibition [1]: 20%
